Laboratory results: patent US10106539B2, “Spiro-indolines for the treatment and prophylaxis of respiratory syncytial virus infection (RSV)” (REVIRAL LIMITED, priority 2014, dated 2018)

Key:
[1] = test system: RSV A2 (PRNT1); assay: RSV plaque reduction assay, A2 (PRNT1), Vero cells; type: cell-based, respiratory syncytial virus; details: human respiratory syncytial virus, Vero; n = 4
Experimental: Plaque Reduction Assay: […] After an overnight incubation at 37° C. in a humidified 5% CO2 atmosphere, the monolayer of cells should be approximately 90% confluent. Antiviral compounds were titrated in pre-warmed Serum Free (SF) Optimem in a U-bottom 96 well plate. […] Media was then removed from cells and replaced with PBS (100 μl/well). RSV stock was thawed and diluted in SF Optimem media to 4000 PFU/mLl. An equal volume of virus was added to compounds on the titration plate. PBS was removed from cells which were then inoculated with the virus/compound solution (50 μL/well). Cells were incubated for 2 h in a 37° C.+5% CO2 humidified incubator to allow infection. […] Immunostaining Procedure: Media was removed from cells and the monolayer washed with PBS. Cells were fixed with ice cold 80% Acetone in PBS (100 μl/well) for 20 mins at −20° C. […] Blocking solution was removed and plates washed once with PBS-T. Primary antibody in blocking solution was added to plates (50 μl/well) and incubated for 1 h at 37° C. Plates were then washed 3 times with PBS-T. Secondary antibody in blocking solution was added to plates (50 μL/well) and incubated for 1 h at 37° C. in the dark. […] Plates were scanned on the Odyssey Imager (Li-Cor Biosciences) at a resolution of […], medium quality and level 5 intensity in the […]. Data Analysis: Images obtained were saved and plaque numbers counted with the aid of computer imaging software. EC50 values for compounds were derived from dose response curves [three variable log (inhibitor) vs response] obtained using Graphpad Prism software.

[2] = Plasma protein binding (equilibrium dialysis), human; type: in vitro ADME; details: plasma (100%), pH 7.4, read-out: PPB fraction unbound, human
Experimental: Protein Binding Determination: Experimental Procedure
Solutions of test compound (5 μM, 0.5% final DMSO concentration) are prepared in buffer (pH 7.4) and 100% species-specific plasma. The experiment is performed using equilibrium dialysis with the two compartments separated by a semi-permeable membrane. The buffer solution is added to one side of the membrane and the plasma solution to the other side. After equilibration, samples are taken from both sides of the membrane. Standards are prepared in plasma and buffer and are incubated at 37° C.
Test compound incubations are performed in duplicate. A control compound is included in each experiment.
The solutions for each batch of compounds are combined into two groups (protein-free and protein-containing), then cassette analysed by LC-MS/MS using two sets of calibration standards for protein-free (7 points) and protein-containing solutions (6 points).

[3] = test system: RSV-A5 (6470); assay: RSV plaque reduction assay, RSV-A5 (6470), Vero cells; type: cell-based; details: human respiratory syncytial virus, n = 1
Experimental: (§1) Plaque Reduction Assay: […] After an overnight incubation at 37° C. in a humidified 5% CO2 atmosphere, the monolayer of cells should be approximately 90% confluent. Antiviral compounds were titrated in pre-warmed Serum Free (SF) Optimem in a U-bottom 96 well plate. […] Media was then removed from cells and replaced with PBS (100 μl/well). RSV stock was thawed and diluted in SF Optimem media to 4000 PFU/mLl. An equal volume of virus was added to compounds on the titration plate. PBS was removed from cells which were then inoculated with the virus/compound solution (50 μL/well). Cells were incubated for 2 h in a 37° C.+5% CO2 humidified incubator to allow infection. […] Immunostaining Procedure: Media was removed from cells and the monolayer washed with PBS. Cells were fixed with ice cold 80% Acetone in PBS (100 μl/well) for 20 mins at −20° C. […] Blocking solution was removed and plates washed once with PBS-T. Primary antibody in blocking solution was added to plates (50 μl/well) and incubated for 1 h at 37° C. Plates were then washed 3 times with PBS-T. Secondary antibody in blocking solution was added to plates (50 μL/well) and incubated for 1 h at 37° C. in the dark. […] Data Analysis: Images obtained were saved and plaque numbers counted with the aid of computer imaging software. […]

[4] = test system: RSV-A5 (6440); assay: RSV plaque reduction assay, RSV-A5 (6440), Vero cells; type: cell-based; details: human respiratory syncytial virus, n = 1
Experimental: as §1

[5] = test system: RSV-BA (Brasil); assay: RSV plaque reduction assay, RSV-BA (Brasil), Vero cells; type: cell-based; details: human respiratory syncytial virus, n = 1
Experimental: as §1

NCc1ccc2c(c1)nc(CN1C(=O)C3(CC3)c3ccc(F)cc31)n2CCCC(F)(F)F [Example 1, 1′-{[5-(Aminomethyl)-1-(4,4,4-trifluorobutyl)-1H-1,3-benzodiazol-2-yl]methyl}-6′-fluoro-1′,2′-dihydrospiro[cyclopropane-1,3′-indole]-2′-one]
IC50 [1]: 2.1 nM
IC90 [1]: 13.5 nM
fraction unbound at 5 μM [2]: 0.67
IC50 [3]: 10.3 nM
IC90 [3]: 81 nM
IC50 [4]: 5.7 nM
IC90 [4]: 106 nM
IC50 [5]: 2.1 nM
IC90 [5]: 34.5 nM
